In US5118665A, “Anti-oxidative and anti-inflammatory metal:peptide complexes and uses thereof” (ProCyte Corporation, priority 1990, dated 1992):
Read-outs that look alike come from different tables or passages of the source.

How the values were obtained:
Assay type in all cases: biochemical
[1] = target: superoxide anion; assay: Superoxide dismutase mimetic activity, xanthine oxidase/NBT method; settings: for CONC. FOR 50% INHIB.: Table 4, ratio 2:1 (binary) or 1:1:1 (ternary with chelating agent), ug copper(II) added per reaction; for IC50: read-out: CONC. FOR 50% INHIB.
Experimental: The reactions contained the following: 100 uM xanthine, 56 uM NBT (nitro blue tetrazolium) 1 unit of catalase, and 50 mM potassium phosphate buffer, pH 7.8. The reaction was initiated by the addition of xanthine oxidase in sufficient quantity to obtain an increase in absorbance at 560 nm of approximately 0.025/min. in a total sample volume of 1.7 ml. The xanthine oxidase was prepared fresh daily and stored on ice until used. All the components of the reaction are added except the xanthine oxidase and the spectrophotometer was adjusted to zero at 560 nm. The reaction was initiated by the addition of the xanthine oxidase. All reagents were obtained from Sigma Chemical Co.
Measurements of the absorbance at 560 nm were taken at 1-2 minute intervals for at least 16 minutes following addition of xanthine oxidase. A control consisted of reactions containing no metal:peptide complex.
All complexes were tested at a 2:1 molar ratio of peptide to metal. It should be noted that the absolute value found in enzymatic assays for SOD mimetic activity varries depending upon the enzyme lot used in the evaluation. Thus, the inclusion of GHL-Cu permits comparisons from experiment to experiment based on a normalized activity relative to GHL-Cu.
In this example, superoxide dismutase was measured by the xanthine oxidase/NBT method as described in Example 13. Each complex was tested relative to GHL-Cu assayed at the same time. All complexes were tested at a 2:1 molar ratio of peptide to metal.
In this example, superoxide dismutase was measured by the xanthine oxidase/NBT method as described in Example 13. Each compound was tested relative to GHL-Cu assayed at the same time. All complexes were tested at a 2:1 molar ratio of peptide to metal.
In this example, superoxide dismutase was measured by the xanthine oxidase/NBT method as described in Example 13. Each compound was tested relative to GHL-Cu or glycyl-L-histidyl-L-lysyl-L-valyl-L-phenylalanyl-valine:copper(II) ("GHLVFV-Cu") assayed at the same time. In this example, the amount of complex for 50% inhibition is expressed as ug copper(II) added per reaction necessary to achieve 50% inhibition of the control reaction.
In this example, superoxide dismutase was measured by the xanthine oxidase/NBT method as described in Example 13. Each compound was tested relative to GHL-Cu assayed at the same time.

[2] = tested on: liposomes prepared from rat liver lipids; assay: Inhibition of ferritin and superoxide anion dependent lipid peroxidation (MDA formation); settings: peptide:metal 1:1; for RATE nmole MDA/min/ml: incubations as Example 18, no addition = 0.220 (A), 0.150 (B); for PERCENT INHIBITION: versus reaction with no additions
Experimental: (§1) Iron release from ferritin was measured by incubating ferritin with 10 um of a metal:peptide complexes of the present invention and determining the amount of iron released. Reaction mixtures contained 0.33 mM xanthine, 25 mU/ml xanthine oxidase, and 90 U/ml catalase as described in Example 13. In addition, 200 uM ferritin was added as a source of iron and 150 uM bathophenanthroline disulfonate to chelate and released iron. The release of iron was measured as an increase in the absorption of 535 nm due to the ironbathophenanthroline complex. The data is presented in Table 6 as this absorption rate and as a percent inhibition of a reaction with no additions. All the metal:peptide complexes are at a molar ratio of peptide to metal of 1:1.
Lipid peroxidation was measured by determining the oxidation of lipids in liposomes prepared from rat liver lipids. Incubations were as described in Example 18 except that rat liver lipid […] were included. The oxidation was followed by determining the amount of malondialdehyde ("MDA") formed during the reaction. The data is presented in Table 7 as this absorption rate and as a percent inhibition of a reaction with no additions. All the metal:peptide complexes are at a molar ratio of peptide to metal of 1:1.

[3] = tested on: ferritin; assay: Inhibition of ferritin iron release (bathophenanthroline disulfonate, A535); settings: 10 um complex, peptide:metal 1:1; for RATE INC. A535 nm min: 200 uM ferritin, no addition = 0.0060; for PERCENT INHIBITION: versus reaction with no additions
Experimental: as §1

[4] = Table 4 experiment A, GHL:Cu 2:1 = 100
[5] = Table 4 experiment B, GHLVFV:Cu 2:1 = 100
[6] = Table 1, GHL:Cu of the same experiment = 100, peptide:metal 2:1
[7] = Table 1, peptide:metal 2:1, pH 7.8, experiments A-E, each with its own GHL:Cu control
[8] = Table 3, ratio 2:1, copper(II) versus manganese(II), experiments A, B
[9] = Table 3, ratio 2:1, reference of the same experiment = 100
[10] = Table 2, GHL:Cu of the same experiment = 100, peptide:metal 2:1
[11] = Table 2, peptide:metal 2:1, experiments A-G, each with its own GHL:Cu control
[12] = Table 5, GHL:Cu of the same experiment = 100, ratio 2:1
[13] = Table 5, ratio 2:1, albumin binding moieties, experiments A, B

Q: “glycylL-histidyl-L-lysine:copper(II):histidine [GHL:Cu:H]” was tested. Which “CONC. FOR 50% INHIB.” value [1] did it give?
A: The value was 0.2 ug copper(II) per reaction.

Q: And the “RELATIVE to GHL-Cu” value [1, 4]?
A: The value was 1600.

Q: “glycylL-histidyl-L-lysyl-L-valyl-L-phenylalanyl-L-valine:copper(II):histiine [GHLVFV:Cu:H]” was tested. Which “CONC. FOR 50% INHIB.” value [1] did it give?
A: Its value is 0.2 ug copper(II) per reaction.

Q: And the “RELATIVE to GHL-Cu” value [1, 5]?
A: Its value is 1400.

Q: Which results are given for “glycylL-histidyl-L-lysyl-L-valyl-L-phenylalanyl-L-valine:copper(II) [GHLVFV:Cu]”?
A: RATE nmole MDA/min/ml [2]: 0.140 nmole MDA/min/ml; PERCENT INHIBITION [2]: 36%; RATE INC. A535 nm min [3]: 0.0011 A535 nm min; PERCENT INHIBITION [3]: 82%; RELATIVE to GHL-Cu [1, 6]: 229; IC50 [1, 7]: 23 µM; CONC. FOR 50% INHIB. [1]: 2.8 ug copper(II) per reaction; RELATIVE to GHL-Cu [1, 5]: 100

Q: “glycyl-L-histidyl-L-lysine n-octyl ester:copper(II) [GHL-Octyl Ester:Cu]” was tested. Which “RATE nmole MDA/min/ml” value [2] did it give?
A: Its value is 0.060 nmole MDA/min/ml.

Q: And the “PERCENT INHIBITION” value [2]?
A: Its value is 73%.

Q: What about the “RATE INC. A535 nm min” value [3] of the same substance?
A: Its value is 0.0012 A535 nm min.

Q: What about the “PERCENT INHIBITION” value [3] of the same substance?
A: The value was 80%.

Q: And the “RELATIVE to GHL-Cu” value [1, 6]?
A: Its value is 810.

Q: What about the IC50 [1, 7] of the same substance?
A: The IC50 was 7 µM.

Q: And the IC50 [1, 8]?
A: Its IC50 is 11 µM.

Q: And the “RELATIVE to GHL-Cu” value [1, 9]?
A: The value was 100.

Q: “lysylL-histidyl-glycyl-L-valyl-L-phenylalanyl-L-valine:copper(II) [LHGVFV:Cu]” was tested. Which “RELATIVE to GHL-Cu” value [1, 6] did it give?
A: Its value is 46.

Q: And the IC50 [1, 7]?
A: Its IC50 is 13 µM.

Q: With “glycylL-histidyl-L-lysine noctyl amide:copper(II) [GHL-Octyl Amide:Cu]” as the substance, how does the “RELATIVE to GHL-Cu” value [1, 6] read?
A: Its value is 182.

Q: And the IC50 [1, 7]?
A: The IC50 was 17 µM.

Q: Which “RELATIVE to GHL-Cu” value [1, 6] does the source give for “glycylL-histidyl-L-lysine npalmityl ester:copper(II) [GHL-Palmityl Ester:Cu]” here?
A: Its value is 231.

Q: And the IC50 [1, 7]?
A: Its IC50 is 24 µM.

Q: How did the “RELATIVE to GHL-Cu” value [1, 10] turn out when “alanylL-histidyl-L-lysine:copper(II) [AHL:Cu]” was run?
A: The value was 563.

Q: What about the IC50 [1, 11] of the same substance?
A: Its IC50 is 6 µM.

Q: What does the source list for “glycylL-histidyl-L-lysine noctyl ester:manganese(II) [GHL-Octyl:Mn]”?
A: IC50 [1, 8]: 2 µM; RELATIVE to GHL-Cu [1, 9]: 611

Q: Which IC50 [1, 8] does the source give for “glycylL-lysyl-L-histidine:manganese(II) [GLH:Mn]” here?
A: The IC50 was 6 µM.

Q: And the “RELATIVE to GHL-Cu” value [1, 9]?
A: The value was 2000.

Q: What does the source list for “alanylL-histidyl-L-lysine:manganese(II) [AHL:Mn]”?
A: IC50 [1, 8]: 6 µM; RELATIVE to GHL-Cu [1, 9]: 667

Q: For “glycylL-(3-benzyl)-histidyl-L-lysine:copper(II) [G(3-Benzyl)HL:Cu]”, which “RELATIVE to GHL-Cu” value [1, 10] is on record?
A: The value was 145.

Q: And the IC50 [1, 11]?
A: The IC50 was 33 µM.

Q: What does the source list for “Lhistidyl-glycyl-L-lysine:copper(II) [HGL:Cu]”?
A: RATE nmole MDA/min/ml [2]: 0.020 nmole MDA/min/ml; PERCENT INHIBITION [2]: 87%; RATE INC. A535 nm min [3]: 0.0008 A535 nm min; PERCENT INHIBITION [3]: 87%; RELATIVE to GHL-Cu [1, 10]: 22300; IC50 [1, 11]: 0.3 µM

Q: Which “RELATIVE to GHL-Cu” value [1, 10] does the source give for “lysylL-histidyl-caprolactam:copper(II) [GHCaprolactam:Cu]” here?
A: The value was 4500.

Q: What about the IC50 [1, 11] of the same substance?
A: Its IC50 is 0.8 µM.

Q: How did the “RELATIVE to GHL-Cu” value [1, 6] turn out when “glycylL-histidyl-L-lysyl-L-alanyl-L-phenylalanyl-L-alanine:copper(II) [GHLAFA:Cu]” was run?
A: The value was 561.

Q: And the IC50 [1, 7]?
A: Its IC50 is 10 µM.

Q: What does the source list for “glycylL-histidyl-L-lysyl-L-valyl-L-phenylalanyl-L-valine:copper(II):imidaole [GHLVFV:Cu:Im]”?
A: CONC. FOR 50% INHIB. [1]: 0.3 ug copper(II) per reaction; RELATIVE to GHL-Cu [1, 5]: 930

Q: Which results are given for “lysylL-histidyl-L-glycine amide:copper(II) [LHG-Amide:Cu]”?
A: RELATIVE to GHL-Cu [1, 10]: 21; IC50 [1, 11]: 70 µM

Q: Which results are given for “glycylL-histidyl-L-lysyl-L-tryptophan:copper(II) [GHLW:Cu]”?
A: RELATIVE to GHL-Cu [1, 12]: 4700; IC50 [1, 13]: 1 µM

Q: Which “RELATIVE to GHL-Cu” value [1, 10] does the source give for “glycylL-lysyl-L-histidine:copper(II) [GLH:Cu]” here?
A: The value was 75.

Q: And the IC50 [1, 11]?
A: Its IC50 is 20 µM.

Q: “glycylL-(3-methyl)-histidyl-L-lysine:copper(II) [G(3-Methyl)HL:Cu]” was tested. Which “RATE nmole MDA/min/ml” value [2] did it give?
A: The value was 0.104 nmole MDA/min/ml.

Q: What about the “PERCENT INHIBITION” value [2] of the same substance?
A: The value was 31%.

Q: And the “RATE INC. A535 nm min” value [3]?
A: The value was 0.0010 A535 nm min.

Q: What about the “PERCENT INHIBITION” value [3] of the same substance?
A: Its value is 83%.

Q: What about the “RELATIVE to GHL-Cu” value [1, 10] of the same substance?
A: The value was 616.

Q: And the IC50 [1, 11]?
A: The IC50 was 8 µM.

Q: Which results are given for “glycylL-(3-methyl)-histidyl-L-lysyl-glycyl-L-tryptophan:copper(II) [G(3-Methyl)HLGW:Cu]”?
A: RELATIVE to GHL-Cu [1, 12]: 521; IC50 [1, 13]: 11 µM

Q: For “glycylL-histidyl-cadaverine:copper(II) [GHCadaverine:Cu]”, which “RELATIVE to GHL-Cu” value [1, 10] is on record?
A: Its value is 118.

Q: And the IC50 [1, 11]?
A: Its IC50 is 17 µM.

Q: With “Lhistidyl-glycyl-L-lysine:manganese(II) [HGL:Mn]” as the substance, how does the IC50 [1, 8] read?
A: The IC50 was 2 µM.

Q: And the “RELATIVE to GHL-Cu” value [1, 9]?
A: The value was 2000.

Q: Which “RATE nmole MDA/min/ml” value [2] does the source give for “glycyl-L-histidyl-L-lysine:copper(II) [GHL:Cu, reference compound]” here?
A: The value was 0.084 nmole MDA/min/ml.

Q: And the “PERCENT INHIBITION” value [2]?
A: The value was 62%.

Q: What about the “RATE INC. A535 nm min” value [3] of the same substance?
A: Its value is 0.0016 A535 nm min.

Q: And the “PERCENT INHIBITION” value [3]?
A: Its value is 73%.

Q: And the “RELATIVE to GHL-Cu” value [1, 6]?
A: Its value is 100.

Q: And the “RELATIVE to GHL-Cu” value [1, 10]?
A: The value was 100.

Q: What about the “RELATIVE to GHL-Cu” value [1, 9] of the same substance?
A: Its value is 100.

Q: What about the “CONC. FOR 50% INHIB.” value [1] of the same substance?
A: Its value is 3.2 ug copper(II) per reaction.

Q: And the “RELATIVE to GHL-Cu” value [1, 4]?
A: Its value is 100.

Q: And the “RELATIVE to GHL-Cu” value [1, 12]?
A: The value was 100.

Q: Which “CONC. FOR 50% INHIB.” value [1] does the source give for “glycylL-histidyl-L-lysine:copper(II):imidazole [GHL:Cu:Im]” here?
A: The value was 1.3 ug copper(II) per reaction.

Q: And the “RELATIVE to GHL-Cu” value [1, 4]?
A: The value was 246.

Q: Which results are given for “lysylL-histidyl-L-glycine noctyl ester:copper(II) [LHG-Octyl Ester:Cu]”?
A: RELATIVE to GHL-Cu [1, 6]: 60; IC50 [1, 7]: 10 µM
